Laboratory results published in patent publication US10144758B2, “Deuterated bile acids” (Metselex, Inc., priority 2013, dated 2018).

Test system: primary rat hepatocytes
Test: TGF-β1-induced apoptosis, percentage of apoptotic cells
Type: cell-based
Details: 1 nM TGF-β1 36 hours; 100 μM compound pre-treatment; FIG. 8B
Description: Primary rat hepatocytes were isolated from male rats (100-150 grams) by collagenase perfusion (as described by Solá S, et al., 2003, Journal of Biological Chemistry 278: 48831-48838)). Briefly, rats were anesthetized with phenobarbital sodium (100 mg/kg body weight) injected into the peritoneal cavity. After administration of heparin (200 units/kg body weight) in the tail vein, the animal's abdomen was opened and the portal vein exposed and cannulated. The liver was then perfused at 37° C. in situ with a calcium-free Hanks' Balanced Salt Solution (HBSS) for about 10 minutes, and then with 0.05% collagenase type IV in calcium-present HBSS for another 10 minutes. […] Cell viability was determined by trypan blue exclusion and was typically 80-85%. […] Fluorescence was visualized using an Axioskop fluorescence microscope (Carl Zeiss GmbH). Blue-fluorescent nuclei were scored blindly and categorized according to the condensation and staining characteristics of chromatin. […] Five random microscopic fields per sample containing approximately 150 nuclei were counted, and mean values expressed as the percentage of apoptotic nuclei. […] Results are expressed as means±SEM of at least three experiments. *p<0.01 from control; § p<0.05 and †p<0.01 from TGF-β1.

Compound | reduction of the percentage of apoptotic cells
7,8-[^2H]-3α,7α-dihydroxy-5β-cholan-24-oic acid/7-[^2H]-3α,7α-dihydroxy-5β-cholan-24-oic acid [Compound 5] | ~40%
C[C@H](CCC(=O)O)[C@H]1CC[C@H]2[C@@H]3[C@@H](O)C[C@@H]4C[C@H](O)CC[C@]4(C)[C@H]3CC[C@]12C [UDCA, Ursodeoxycholic acid, reference compound] | ~40%
